Data published in patent US9765067B2, “Thiophen-2-yl-pyridin-2-yl-1H-pyrazole-4-carboxylic acid derivatives and the use thereof as soluble guanylate cyclase activators” (Novartis AG, priority 2014, dated 2017).

The molecules below were run against T1, soluble guanylate cyclase (human GUCYA3/GUCYB3) overexpressed in CHO cells (Homo sapiens, UniProt Q02108+Q02153) (assay: CHO cellular assay (cGMP production, HTRF)). Details: CHO K1 clone 8E10 overexpressing human sGC, Cisbio HTRF, 1 h room temperature, 1 mM IBMX, 20 uM ODQ, minimum quantification limit 0.5 nM.
T1 construct: expressed in transfected cells
T1 sequence (Q02108 1-690 partner): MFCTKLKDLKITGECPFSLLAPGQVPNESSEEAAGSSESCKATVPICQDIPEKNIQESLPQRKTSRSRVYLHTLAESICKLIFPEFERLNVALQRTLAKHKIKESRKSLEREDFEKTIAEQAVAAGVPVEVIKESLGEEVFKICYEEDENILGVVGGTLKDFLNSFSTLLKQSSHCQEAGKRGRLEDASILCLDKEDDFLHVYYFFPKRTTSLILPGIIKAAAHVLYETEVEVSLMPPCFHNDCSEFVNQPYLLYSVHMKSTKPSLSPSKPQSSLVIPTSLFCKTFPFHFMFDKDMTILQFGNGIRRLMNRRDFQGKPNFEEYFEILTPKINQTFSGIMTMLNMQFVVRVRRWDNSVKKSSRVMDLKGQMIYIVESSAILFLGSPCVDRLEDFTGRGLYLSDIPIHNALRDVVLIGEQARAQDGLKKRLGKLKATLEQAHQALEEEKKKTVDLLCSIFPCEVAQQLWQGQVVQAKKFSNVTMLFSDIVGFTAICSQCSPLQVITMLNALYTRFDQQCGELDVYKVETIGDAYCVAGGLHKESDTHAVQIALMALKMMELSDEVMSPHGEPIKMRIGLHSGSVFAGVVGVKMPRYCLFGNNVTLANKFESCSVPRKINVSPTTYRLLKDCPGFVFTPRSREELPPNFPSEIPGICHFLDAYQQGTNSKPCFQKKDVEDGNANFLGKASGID
T1 sequence (Q02153 1-619): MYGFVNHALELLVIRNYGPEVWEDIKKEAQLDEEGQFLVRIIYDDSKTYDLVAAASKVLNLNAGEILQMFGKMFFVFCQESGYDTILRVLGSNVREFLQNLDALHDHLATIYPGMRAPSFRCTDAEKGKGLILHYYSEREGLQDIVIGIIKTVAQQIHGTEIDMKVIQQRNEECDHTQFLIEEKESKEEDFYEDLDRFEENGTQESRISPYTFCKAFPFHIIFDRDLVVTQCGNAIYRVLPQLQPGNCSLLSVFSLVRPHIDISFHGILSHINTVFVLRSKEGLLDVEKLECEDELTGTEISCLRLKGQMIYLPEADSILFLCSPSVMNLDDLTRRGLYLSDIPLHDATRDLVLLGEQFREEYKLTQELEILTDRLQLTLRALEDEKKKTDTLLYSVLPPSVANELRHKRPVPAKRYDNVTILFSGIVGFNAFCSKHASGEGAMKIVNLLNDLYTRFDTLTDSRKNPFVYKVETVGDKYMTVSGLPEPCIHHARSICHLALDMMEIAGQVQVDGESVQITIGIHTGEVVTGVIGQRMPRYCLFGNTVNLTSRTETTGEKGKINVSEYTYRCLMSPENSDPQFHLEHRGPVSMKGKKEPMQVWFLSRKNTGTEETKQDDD
Format: cell-based
Description: Chinese hamster ovary (CHO) cells overexpressing soluble guanylate cyclase were generated to test the effect of sGC activators in a cellular context. Human cDNAs for GUCYA3 (RefSeq: NM_000856.3) and GUCYB3 (RefSeq: NM_000857.1) were amplified by PCR from a HUVEC (Human Umbilical Vein Endothelial Cells) cDNA library and cloned into mammalian expression vectors. CHO K1 cells (ATCC CCL-61) were transfected using Lipofectamine 2000 following manufacturer's instructions and stably expressing clones were identified by antibiotic selection. CHO GUCY clone 8E10 was used for subsequent experiments.
Cells were seeded at a density of 3000 cells/well in white 384-well proxyplates (Perkin Elmer) and incubated overnight, then the medium was removed and cells were washed with assay buffer (HBSS, 0.1% BSA, 1 mM IBMX, 20 uM ODQ). sGC activators were serially diluted in DMSO, then diluted in assay buffer prior to adding to cells (10 ul/well, final DMSO concentration 0.5%). Cells were incubated with compounds for 1 h room temperature, then assayed for cGMP production using Cisbio cGMP HTRF kit (62GM2PEC) according to manufacturer's instructions.
The EC50s are calculated based on the amount of cGMP interpolated from the standard curve, using a 4-parameter sigmoidal dose-response.

| Compound | EC50 [nM] |
| --- | --- |
| Cc1cc(C2CCN(C(=O)C3CCOC3)CC2)ccc1OCc1ccsc1-c1cccc(-n2ncc(C(=O)O)c2C(F)(F)F)n1 (racemic) [Example 12-3, (±)-1-(6-(3-((2-Methyl-4-(1-(tetrahydrofuran-3-carbonyl)piperidin-4-yl)phenoxy)methyl)thiophen-2-yl)pyridin-2-yl)-5-(trifluoromethyl)-1H-pyrazole-4-carboxylic acid] | 6.9 |
| Cc1cc(COc2ccc([C@@H]3CCN(C(=O)C4CC4)C[C@H]3O)cc2)c(-c2cccc(-n3ncc(C(=O)O)c3C(F)(F)F)n2)s1 (single isomer, unassigned) [Example 35-6, (+)-trans-1-(6-(3-((4-((3,4)-1-(cyclopropanecarbonyl)-3-hydroxypiperidin-4-yl)phenoxy)methyl)-5-methylthiophen-2-yl)pyridin-2-yl)-5-(trifluoromethyl)-1H-pyrazole-4-carboxylic acid] | 91 |
| CCC(=O)N1CCC(c2ccc(OCc3ccsc3-c3cccc(-n4ncc(C(=O)O)c4C(F)(F)F)n3)cc2)CC1 [Example 1, 1-(6-(3-((4-(1-Propionylpiperidin-4-yl)phenoxy)methyl)thiophen-2-yl)pyridin-2-yl)-5-(trifluoromethyl)-1H-pyrazole-4-carboxylic acid] | 24 |
| O=C(O)c1cnn(-c2cccc(-c3sccc3COc3ccc(C4CCN(C(=O)C5CC5)CC4)cc3)n2)c1C(F)(F)F [Example 2-3, 1-(6-(3-((4-(1-(Cyclopropanecarbonyl)piperidin-4-yl)phenoxy)methyl)thiophen-2-yl)pyridin-2-yl)-5-(trifluoromethyl)-1H-pyrazole-4-carboxylic acid] | 2.8 |
| CCC(=O)N1CCC(c2ccc(OCc3c(C(F)(F)F)csc3-c3cccc(-n4ncc(C(=O)O)c4C(F)(F)F)n3)c(C)c2)CC1 [Example 2-4, 1-(6-(3-((2-Methyl-4-(1-propionylpiperidin-4-yl)phenoxy)methyl)-4-(trifluoromethyl)thiophen-2-yl)pyridin-2-yl)-5-(trifluoromethyl)-1H-pyrazole-4-carboxylic acid] | ≤ 0.5 |
| CCC(=O)N1CCC(c2ccc(OCc3ccsc3-c3cccc(-n4ncc(C(=O)O)c4C(F)(F)F)n3)c(C)c2)CC1 [Example 2-5, 1-(6-(3-((2-Methyl-4-(1-propionylpiperidin-4-yl)phenoxy)methyl)thiophen-2-yl)pyridin-2-yl)-5-(trifluoromethyl)-1H-pyrazole-4-carboxylic acid] | 5.5 |
| COC(=O)N1CCC(c2ccc(OCc3cc(C)sc3-c3cccc(-n4ncc(C(=O)O)c4C(F)(F)F)n3)c(C)c2)CC1 [Example 3, 1-(6-(3-((4-(1-(Methoxycarbonyl)piperidin-4-yl)-2-methylphenoxy)methyl)-5-methylthiophen-2-yl)pyridin-2-yl)-5-(trifluoromethyl)-1H-pyrazole-4-carboxylic acid] | 1.4 |
| Cc1cc(C2CCN(C(=O)C3CC3)CC2)ccc1OCc1c(C)csc1-c1cccc(-n2ncc(C(=O)O)c2C(F)(F)F)n1 [Example 4-4, 1-(6-(3-((4-(1-(Cyclopropanecarbonyl)piperidin-4-yl)-2-methylphenoxy)methyl)-4-methylthiophen-2-yl)pyridin-2-yl)-5-(trifluoromethyl)-1H-pyrazole-4-carboxylic acid] | ≤ 0.5 |

More lines, now with the values ahead:

| EC50 [nM] | Compound |
| --- | --- |
| 48 | Cc1cc(C2CCN(C(=O)C3COC(C)(C)O3)CC2)ccc1OCc1ccsc1-c1cccc(-n2ncc(C(=O)O)c2C(F)(F)F)n1 (racemic) [Example 12-6, (±)-1-(6-(3-((4-(1-(2,2-Dimethyl-1,3-dioxolane-4-carbonyl)piperidin-4-yl)-2-methylphenoxy)methyl)thiophen-2-yl)pyridin-2-yl)-5-(trifluoromethyl)-1H-pyrazole-4-carboxylic acid] |
| 160 | Cc1cc(COc2ccc(C3CCN(C(=O)C4CC4)CC3O)cc2)c(-c2cccc(-n3ncc(C(=O)O)c3C(F)(F)F)n2)s1 (racemic) [Example 35-11, (±)-trans-1-(6-(3-((4-(1-(Cyclopropanecarbonyl)-3-hydroxypiperidin-4-yl)phenoxy)methyl)-5-methylthiophen-2-yl)pyridin-2-yl)-5-(trifluoromethyl)-1H-pyrazole-4-carboxylic acid] |
| 620 | Cc1cc(C2CCN(C(=O)C3CCNC3)CC2)ccc1OCc1ccsc1-c1cccc(-n2ncc(C(=O)O)c2C(F)(F)F)n1 (racemic) [Example 42, (±)-1-(6-(3-((2-Methyl-4-(1-(pyrrolidine-3-carbonyl)piperidin-4-yl)phenoxy)methyl)thiophen-2-yl)pyridin-2-yl)-5-(trifluoromethyl)-1H-pyrazole-4-carboxylic acid] |
| 130 | CCc1cc(OCc2cc(C)sc2-c2cccc(-n3ncc(C(=O)O)c3C(F)(F)F)n2)ccc1C1CCN(C(=O)C(O)CO)CC1 (racemic) [Example 44, (±)-1-(6-(3-((4-(1-(2,3-Ddihydroxypropanoyl)piperidin-4-yl)-3-ethylphenoxy)methyl)-5-methylthiophen-2-yl)pyridin-2-yl)-5-(trifluoromethyl)-1H-pyrazole-4-carboxylic acid] |
| 2.8 | CCC(=O)N1CCC(c2ccc(OCc3c(C(F)(F)F)csc3-c3cccc(-n4ncc(C(=O)O)c4C(F)(F)F)n3)cc2)CC1 [Example 2-1, 1-(6-(3-((4-(1-Propionylpiperidin-4-yl)phenoxy)methyl)-4-(trifluoromethyl)thiophen-2-yl)pyridin-2-yl)-5-(trifluoromethyl)-1H-pyrazole-4-carboxylic acid] |
| 32 | COC(=O)N1CCC(c2ccc(OCc3ccsc3-c3cccc(-n4ncc(C(=O)O)c4C(F)(F)F)n3)cc2)CC1 [Example 2-2, 1-(6-(3-((4-(1-(Methoxycarbonyl)piperidin-4-yl)phenoxy)methyl)thiophen-2-yl)pyridin-2-yl)-5-(trifluoromethyl)-1H-pyrazole-4-carboxylic acid] |
| 2 | CCC(=O)N1CCC(c2cc(C)c(OCc3ccsc3-c3cccc(-n4ncc(C(=O)O)c4C(F)(F)F)n3)c(C)c2)CC1 [Example 4-1] |
| 3 | CCC(=O)N1CCC(c2ccc(OCc3cc(C)sc3-c3cccc(-n4ncc(C(=O)O)c4C(F)(F)F)n3)cc2)CC1 [Example 4-2, 1-(6-(5-Methyl-3-((4-(1-propionylpiperidin-4-yl)phenoxy)methyl)thiophen-2-yl)pyridin-2-yl)-5-(trifluoromethyl)-1H-pyrazole-4-carboxylic acid] |
| 5.5 | CCc1cc(COc2ccc(C3CCN(C(=O)OC)CC3)cc2C)c(-c2cccc(-n3ncc(C(=O)O)c3C(F)(F)F)n2)s1 [Example 4-3, 1-(6-(5-Ethyl-3-((4-(1-(methoxycarbonyl)piperidin-4-yl)-2-methylphenoxy)methyl)thiophen-2-yl)pyridin-2-yl)-5-(trifluoromethyl)-1H-pyrazole-4-carboxylic acid] |
| ≤ 0.5 | Cc1cc(COc2ccc(C3CCN(C(=O)C4CC4)CC3)cc2C)c(-c2cccc(-n3ncc(C(=O)O)c3C(F)(F)F)n2)s1 [Example 5, 1-(6-(3-((4-(1-(Cyclopropanecarbonyl)piperidin-4-yl)-2-methylphenoxy)methyl)-5-methylthiophen-2-yl)pyridin-2-yl)-5-(trifluoromethyl)-1H-pyrazole-4-carboxylic acid] |
